Common to all, as to test: Method 1: intracellular Ca2+ release (FLIPR, Calcium 5) in recombinant CHO-K1 cells
Holding throughout (assay type): cell-based

Assay [1] has as its target T1, human S1PR3 receptor (Homo sapiens, UniProt Q99500).
T1 construct: host or cells: CHO-K1
The conditions noted are these: (1): determined with method 1; read-out: S1P3 EC50. In short, it runs like this: (§1)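 Agonist EC50 values come from nonlinear fits of FLIPR Ca2+ fluorescence, normalized to the phospho-fingolimod reference curve. Recombinant CHO-K1 (receptor plus Gq/i5, aequorin) dye-loaded 1 h at 37° C in pH 7.4 Hepes/probenecid/BSA buffer. Antagonist mode: 10 min preincubation before phospho-fingolimod at EC80.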

In assay [2] the target is T2, human S1PR4 receptor (Homo sapiens, UniProt O95977).
T2 construct: host or cells: CHO-K1
T2 sequence (O95977 1-384): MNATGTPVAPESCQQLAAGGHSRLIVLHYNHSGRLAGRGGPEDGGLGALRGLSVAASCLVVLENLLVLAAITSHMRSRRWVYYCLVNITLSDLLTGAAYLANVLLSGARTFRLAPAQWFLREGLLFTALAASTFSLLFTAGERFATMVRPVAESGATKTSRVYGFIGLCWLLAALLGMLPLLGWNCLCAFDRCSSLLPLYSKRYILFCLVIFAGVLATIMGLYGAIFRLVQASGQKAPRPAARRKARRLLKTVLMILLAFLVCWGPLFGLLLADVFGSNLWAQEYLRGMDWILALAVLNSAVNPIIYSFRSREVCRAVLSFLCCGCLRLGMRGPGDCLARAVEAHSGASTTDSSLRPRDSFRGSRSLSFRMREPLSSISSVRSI
The following applies: (1): determined with method 1; read-out: S1P4 EC50. The essentials: as §1

The target of assay [3] is T3, human S1PR1 receptor (Homo sapiens, UniProt P21453).
T3 construct: host or cells: CHO-K1
T3 sequence (P21453 whole entry): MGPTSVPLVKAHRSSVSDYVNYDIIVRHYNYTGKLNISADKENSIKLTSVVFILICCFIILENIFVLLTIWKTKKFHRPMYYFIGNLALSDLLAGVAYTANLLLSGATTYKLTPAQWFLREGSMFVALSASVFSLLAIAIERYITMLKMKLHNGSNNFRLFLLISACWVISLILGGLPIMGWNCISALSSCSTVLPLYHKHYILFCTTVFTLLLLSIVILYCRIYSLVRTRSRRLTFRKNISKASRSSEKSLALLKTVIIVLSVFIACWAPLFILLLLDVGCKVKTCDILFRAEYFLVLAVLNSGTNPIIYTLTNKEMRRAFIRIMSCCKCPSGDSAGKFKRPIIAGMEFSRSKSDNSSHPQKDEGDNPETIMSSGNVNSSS
The following applies: (1): determined with method 1; read-out: S1P1 EC50. In short, it runs like this: as §1

Assay [4] deals with T4, human S1PR5 receptor (Homo sapiens, UniProt Q9H228).
T4 construct: host or cells: CHO-K1
T4 sequence (Q9H228 whole entry): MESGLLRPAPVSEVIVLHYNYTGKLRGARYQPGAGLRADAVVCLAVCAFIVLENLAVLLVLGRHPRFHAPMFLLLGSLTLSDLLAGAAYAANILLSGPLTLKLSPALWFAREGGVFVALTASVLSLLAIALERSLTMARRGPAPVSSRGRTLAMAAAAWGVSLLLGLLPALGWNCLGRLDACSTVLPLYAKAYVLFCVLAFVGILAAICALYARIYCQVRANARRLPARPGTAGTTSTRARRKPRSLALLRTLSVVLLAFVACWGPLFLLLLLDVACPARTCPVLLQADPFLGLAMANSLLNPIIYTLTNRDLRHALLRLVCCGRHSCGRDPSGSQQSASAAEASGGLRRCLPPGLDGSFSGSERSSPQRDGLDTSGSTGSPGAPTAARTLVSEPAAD
The conditions noted are these: agonist potency, determined with method 1 (symbols A-D); read-out: S1P5 EC50 range. The essentials:
as §1

Molecules are shown by their SMILES. Counter-ions that a name gives are not always drawn.

T1 sequence (Q99500 whole entry): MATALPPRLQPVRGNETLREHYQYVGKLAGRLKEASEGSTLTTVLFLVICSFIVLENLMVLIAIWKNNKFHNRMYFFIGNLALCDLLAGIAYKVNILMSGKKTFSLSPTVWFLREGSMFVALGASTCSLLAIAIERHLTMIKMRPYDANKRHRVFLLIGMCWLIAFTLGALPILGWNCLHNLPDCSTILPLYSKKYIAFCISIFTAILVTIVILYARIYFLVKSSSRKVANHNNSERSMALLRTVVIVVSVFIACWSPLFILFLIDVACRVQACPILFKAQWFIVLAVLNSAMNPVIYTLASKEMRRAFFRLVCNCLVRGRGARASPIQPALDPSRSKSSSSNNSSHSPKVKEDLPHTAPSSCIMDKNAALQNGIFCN

For `O=C(O)CCCN1CCc2nc(-c3ccc(OCc4ccc(Cl)cc4)cc3)ncc2C1` [Compound 40, 4-(2-(4-((4-chlorobenzyl)oxy)phenyl)-7,8-dihydropyrido[4,3-d]pyrimidin-6(5H)-yl)butanoic acid], the 50% effective concentration (EC50) (as a rule, the midpoint of the concentration-response curve) in assay [1] was above 1 µM; in assay [2] it was above 1 µM; in assay [3], above 1 µM; in assay [4] it was below 0.01 µM.

Regarding `CC(CC(=O)O)N1CCc2nc(-c3ccc(OCc4ccc(Cl)c(Cl)c4)cc3)ncc2C1` (stereo not drawn) [Compound 45, 3-(2-(4-((3,4-dichlorobenzyl)oxy)phenyl)-7,8-dihydropyrido[4,3-d]pyrimidin-6(5H)-yl)butanoic acid], the EC50 in assay [1] was above 1 µM; in assay [2] it was above 1 µM; in assay [3] it was above 1 µM; in assay [4] it was 0.01 to 0.1 µM.

As for `O=C(O)CN1CCc2nc(-c3ccc(OCc4c(Cl)cccc4Cl)cc3)ncc2C1` [Compound 34, 2-(2-(4-((2,6-dichlorobenzyl)oxy)phenyl)-7,8-dihydropyrido[4,3-d]pyrimidin-6(5H)-yl)acetic acid], the EC50 in assay [1] is below 1 µM; in assay [2] it was below 1 µM; in assay [3], below 1 µM; in assay [4], 0.1 to 1 µM.

Turning to `O=C(O)CCN1CCc2nc(-c3ccc(OCc4ccccc4)cc3)c(F)cc2C1` [Compound 186, 3-(2-(4-(benzyloxy)phenyl)-3-fluoro-7,8-dihydro-1,6-naphthyridin-6(5H)-yl)propanoic acid], the 50% effective concentration (EC50) in assay [1] is above 1 µM; in assay [2], above 1 µM; in assay [3], above 1 µM; in assay [4], below 0.01 µM.

In the case of `O=C(O)CCN1CCc2nc(-c3ccc(OCc4ccccc4)cc3)cnc2C1` [Compound 177, 3-(2-(4-(benzyloxy)phenyl)-7,8-dihydropyrido[3,4-b]pyrazin-6(5H)-yl)propanoic acid], the concentration giving a half-maximal response (EC50) in assay [1] is above 1 µM; in assay [2], above 1 µM; in assay [3] it was above 1 µM; in assay [4], below 0.01 µM.

For `O=C(O)C1CC(N2CCc3nc(C#Cc4ccccc4Cl)ncc3C2)C1` (stereo not drawn) [Compound 60, 3-(2-((2-chlorophenyl)ethynyl)-7,8-dihydropyrido[4,3-d]pyrimidin-6(5H)-yl)cyclobutanecarboxylic acid], the EC50 was above 1 µM in assay [1], above 1 µM in assay [2], above 1 µM in assay [3] and 1 to 10 µM in assay [4].

For `CC(CC(=O)O)CN1CCc2nc(-c3ccc(CCc4ccc(Cl)cc4)cc3)ncc2C1` (stereo not drawn) [Compound 244, 4-(2-(4-(4-chlorophenethyl)phenyl)-7,8-dihydropyrido[4,3-d]pyrimidin-6(5H)-yl)-3-methylbutanoic acid], the EC50 in assay [1] was above 1 µM; in assay [2], above 1 µM; in assay [3] it was above 1 µM; in assay [4], below 0.01 µM.

Regarding `Cc1cc(OC(F)(F)F)ccc1COc1ccc(-c2ccc3c(n2)CCN(CCC(=O)O)C3)cc1` [Compound 161, 3-(2-(4-((2-methyl-4-(trifluoromethoxy)benzyl)oxy)phenyl)-7,8-dihydro-1,6-naphthyridin-6(5H)-yl)propanoic acid], the half-maximal effective concentration (EC50) in assay [1] was above 1 µM; in assay [2], above 1 µM; in assay [3], above 1 µM; in assay [4], below 0.01 µM.

Turning to `Cc1cc(-c2cc3c(cn2)CN(CCC(=O)O)CC3)ccc1OCc1ccc(C(F)(F)F)cc1` [Compound 173, 3-(6-((4(4-trifluoromethylbenzyl)oxy)-3-methylphenyl)-3,4-dihydro-2,7-naphthyridin-2(1H)-yl)propanoic acid], the EC50 is above 1 µM in assay [1], above 1 µM in assay [2], above 1 µM in assay [3] and below 0.01 µM in assay [4].

Consider `O=C(O)CCN1CCc2nc(-c3ccc(OCc4ccc(Cl)cc4)cc3)cnc2C1` [Compound 178, 3-(2-(4-((4-chlorobenzyl)oxy)phenyl)-7,8-dihydropyrido[3,4-b]pyrazin-6(5H)-yl)propanoic acid], for which the half-maximal effective concentration (EC50) in assay [1] is above 1 µM; in assay [2], above 1 µM; in assay [3], above 1 µM; in assay [4], below 0.01 µM.

On to `O=C(O)CCCN1CCc2nc(Cc3ccccc3)ncc2C1` [Compound 50, 4-(2-benzyl-7,8-dihydropyrido[4,3-d]pyrimidin-6(5H)-yl)butanoic acid], for which the concentration for a half-maximal effect (EC50) in assay [1] was above 1 µM; in assay [2], above 1 µM; in assay [3] it was above 1 µM; in assay [4] it was 1 to 10 µM.

Consider `O=C(O)C1CC(N2CCc3nc(C#Cc4ccccc4Cl)ccc3C2)C1` (stereo not drawn) [Compound 126, 3-(2-((2-chlorophenyl)ethynyl)-7,8-dihydro-1,6-naphthyridin-6(5H)-yl)cyclobutanecarboxylic acid], for which the EC50 is above 1 µM in assay [1], above 1 µM in assay [2], above 1 µM in assay [3] and 1 to 10 µM in assay [4].

With `Cc1ccccc1COc1ccc(-c2ncc3c(n2)CCN(CC(C)CC(=O)O)C3)cc1C` (stereo not drawn) [Compound 239], the EC50 in assay [1] was above 1 µM; in assay [2], above 1 µM; in assay [3], above 1 µM; in assay [4], below 0.01 µM.

Regarding `CC(CCC(=O)O)N1CCc2nc(-c3ccc(Cc4ccccc4)cc3)ncc2C1` (stereo not drawn) [Compound 214, 4-(2-(4-benzylphenyl)-7,8-dihydropyrido[4,3-d]pyrimidin-6(5H)-yl)pentanoic acid], the EC50 in assay [1] is above 1 µM; in assay [2] it was above 1 µM; in assay [3] it was above 1 µM; in assay [4], 1 to 10 µM.

With `Cc1ccc(COc2ccc(-c3ncc4c(n3)CCN(CCC(=O)O)C4)cc2)cc1C(F)(F)F` [Compound 89, 3-(2-(4-((4-methyl-3-(trifluoromethyl)benzyl)oxy)phenyl)-7,8-dihydropyrido[4,3-d]pyrimidin-6(5H)-yl)propanoic acid], the EC50 in assay [1] is above 1 µM; in assay [2], above 1 µM; in assay [3] it was above 1 µM; in assay [4] it was below 0.01 µM.

As to `CC(CC(=O)O)CN1CCc2nc(-c3ccc(OCc4c(F)cccc4F)cc3F)ncc2C1` (stereo not drawn) [Compound 240, 4-[2-[4-[(2,6-difluorophenyl)methoxy]-2-fluoro-phenyl]-7,8-dihydro-5H-pyrido[4,3-d]pyrimidin-6-yl]-3-methyl-butanoic acid 2,2,2-trifluoroacetic acid salt], the half-maximal effective concentration (EC50) in assay [1] was above 1 µM; in assay [2] it was above 1 µM; in assay [3], above 1 µM; in assay [4], below 0.01 µM.

`Cc1cc(-c2ncc3c(n2)CCN(CC(C)CC(=O)O)C3)ccc1OCc1ccccc1` (stereo not drawn) [Compound 251, 4-(2-(4-(benzyloxy)-3-methylphenyl)-7,8-dihydropyrido[4,3-d]pyrimidin-6(5H)-yl)-3-methylbutanoic acid]: the EC50 is above 1 µM in assay [1], above 1 µM in assay [2], above 1 µM in assay [3] and below 0.01 µM in assay [4].

In the case of `O=C(O)CCN1CCc2nc(-c3ccc(OCc4cccc(F)c4)cc3F)ccc2C1` [Compound 145, 3-(2-(2-fluoro-4-((3-fluorobenzyl)oxy)phenyl)-7,8-dihydro-1,6-naphthyridin-6(5H)-yl)propanoic acid], the EC50 in assay [1] was above 1 µM; in assay [2], above 1 µM; in assay [3], above 1 µM; in assay [4], 0.01 to 0.1 µM.

For `CC(C)(C)c1ccc(COc2ccc(-c3ncc4c(n3)CCN(CCC(=O)O)C4)cc2)cc1` [Compound 87, 3-(2-(4-((4-(tert-butyl)benzyl)oxy)phenyl)-7,8-dihydropyrido[4,3-d]pyrimidin-6(5H)-yl)propanoic acid], the EC50 was above 1 µM in assay [1], above 1 µM in assay [2], above 1 µM in assay [3] and 0.01 to 0.1 µM in assay [4].

In the case of `O=C(O)CCN1CCc2nc(-c3ccc(OCc4ccc(C(F)F)cc4)cc3)ccc2C1` [Compound 166, 3-(2-(4-((4-difluoromethylbenzyl)oxy)phenyl)-7,8-dihydro-1,6-naphthyridin-6(5H)-yl)propanoic acid], the EC50 was above 1 µM in assay [1], above 1 µM in assay [2], above 1 µM in assay [3] and below 0.01 µM in assay [4].

Turning to `O=C(O)CCN1CCc2nc(-c3ccc(OCc4cccc(F)c4)cc3)c(F)cc2C1` [Compound 193, 3-(2-(4-((3-fluorobenzyl)oxy)phenyl)-3-fluoro-7,8-dihydro-1,6-naphthyridin-6(5H)-yl)propanoic acid], the concentration for a half-maximal effect (EC50) in assay [1] was above 1 µM; in assay [2] it was above 1 µM; in assay [3], above 1 µM; in assay [4], below 0.01 µM.

Take `Cc1cc(-c2ncc3c(n2)CCN(CC(C)CC(=O)O)C3)ccc1CCc1cccc(Cl)c1` (stereo not drawn) [Compound 331, 4-(2-(4-(3-chlorophenethyl)-3-methylphenyl)-7,8-dihydropyrido[4,3-d]pyrimidin-6(5H)-yl)-3-methylbutanoic acid]: the figures for the concentration giving a half-maximal response (EC50) in assay [2], in assay [3] and in assay [4] were below 1 µM, above 1 µM and 1 to 10 µM, respectively.

On to `CC(CC(=O)O)CN1CCc2nc(-c3ccc(CCc4ccccc4)cc3F)ncc2C1` (stereo not drawn) [Compound 280, 4-(2-(2-fluoro-4-phenethylphenyl)-7,8-dihydropyrido[4,3-d]pyrimidin-6(5H)-yl)-3-methylbutanoic acid], for which the values for the EC50 in assay [2], in assay [3] and in assay [4] were above 1 µM, above 1 µM and 0.01 to 0.1 µM, respectively.

Values taken from patent US10556907B2 (AbbVie Inc., priority 2015, dated 2020).
